# Where two headings read alike, the source gives them in different places.
# Tests used:
# [1] = tested on: Rat vascular smooth muscle cells; experiment: cells; assay type: cell-based; settings: for inhibition of DNA synthesis by other inhibitors of the Ca++ activated K channel: bFGF-stimulated
# Experimental: (§1) DNA synthesis assessed by the uptake of [3H]thymidine: Cells are grown in either 48 or 96 wells plates (Costar, Cambridge, Mass.) at 10^4 and 0.8 10^3 cells per well, respectively, and grown in Dubelcco's modified Eagle's medium (DME, Gibco, Grand Island, N.Y.) supplemented with 10% heat-inactivated calf serum; they are kept at 37° C. in 5% CO2. When they reach confluence, usually between 3 and 4 days, the medium is replaced with DME 0.5% serum to make them quiescent, and mitogenesis assays are performed 24 hours later.
# (§2) Quiescent cells are exposed to a mitogenic stimulus, such as 10% serum, PDGF (Sigma Co. St. Louis, Mo.), bFGF (Upstate Biotechnologies, Lake Placid, N.Y.), or other appropriate mitogen according to the cell line, and 3 hours 1 later μCi/ml of [3H]thymidine (Dupont, Billerica, Mass.) is added to the wells, and the cells maintained at 37° C./5% CO2 for additional 21 hours. Then the cells are washed 3 times with DME medium and the acid-precipitable radioactivity is extracted with cold 10% TCA (Sigma, Co). After neutralization with 0.3N NaOH (Sigma Co.), aliquots are counted in a Packard Tri-Carb Scintillation counter (Packard Instrument, Downer's Grove, Ill.).
# Rat vascular smooth muscle cells (murine cell line): Quiescent cells were stimulated with purified growth factors (PDGF and bFGF, […]) and synthesis of DNA was assessed by the incorporation of [3H]thymidine measured 24 hours later.
# Cells were stimulated using […] bFGF. […] (FIG. 2)
# Other antimycotics were tested for their inhibition of bFGF-stimulated DNA synthesis in rat vascular smooth muscle cells.
# [2] = tested on: Bovine endothelial (BAEC); experiment: Cell growth (flask surface covered by the cell monolayer), bovine endothelial cells; assay type: cell-based; settings: CLT 10 μM; 48 hs; DME 10% calf serum; control 90±2%
# Experimental: (§3) Measurement of cell density in culture plates: Cells of a specific test cell line are seeded at precisely the same low density in culture plates and incubated for approximately 12 hours in DME 10% serum, or other culture medium depending on the cell line tested. […] Alternatively, the cells can be detached from the plate by incubation with trypsin (Sigma, Co.) […] in ethylene diaminotetraacetic acid (ECTA; Sigma, Co); then the cells are counted in an hemocytometer chamber (Fisher, Pittsburgh, Pa.).
# (§4) After 48 hs cell growth was assessed by optic miscroscopy calculating the surface of the culture flask covered by the cell monolayer.
# [3] = tested on: human umbilical vein (HUVEC); experiment: Cell growth (flask surface covered by the cell monolayer), human umbilical vein cells; assay type: cell-based; settings: CLT 10 μM; 48 hs; DME 10% fetal calf serum; control 90±2%
# Experimental: as §3, §4
# [4] = target: T1, Ca^++ activated K channel (Homo sapiens, UniProt O15554); experiment: Inhibition of the Ca++ activated K channel of human erythrocytes (86Rb influx, K efflux); assay type: cell-based; settings: for order of inhibitory potency, Ca++ activated 86Rb influx / inhibition of Ca++ activated 86Rb influx by other antimycotics and related compounds: human erythrocytes, FIG. 4
# T1 construct: endogenous in cells; host or cells: human erythrocytes (washed red blood cells from heparinized blood)
# Experimental: Preparation of Human Red Blood Cells: Blood is collected in heparinized tubes and centrifuged in a Sorvall centrifuge (RB 5B, Du Pont Instruments,Newtown, Conn.) at 5° C. for 10 minutes at 3000 g. Plasma and buffy coat are carefully removed and the cells washed four times with a washing solution containing 150 mM choline chloride (Sigma Co), 1 mM MgC12 (Sigma Co), 10 mM Tris-MOPS (Sigma, Ca), pH 7.4 at 4° C.(CWS). An aliquot of cells is then suspended in an approximately equal volume of CWS, and from this original cell suspension hematocrit (Hct) and hemoglobin (optical density at 540 nm) are determined.
# Methods to Test Inhibitors of the Ca^++ Activated K: To test inhibitors of the Ca^++ activated K channel, the channel is activated using the calcium ionophore A23187 (Chalbiochem).
# By Atomic Absorption Spectrometry: Washed human erythrocyte are suspended at an hematocrit =1% in CWS containing 0.150 mM CaCl2 (Sigma Co) Aliquots of 1 ml are removed at 0, 3 and 5 minutes, layered on top of 0.3 ml of the oil n-butyl phthalate (Fair Lane, N.J.) placed in an Eppendorf microtube (Fisher) and then centrifuged in a micro centrifuge for 20 seconds. At time 5.30 minutes, ionophore A23187 (1 μM final concentration) is added and samples removed and spin down through phthalate at times 6, 7, 8 and 9 minutes. The supernatant on top of the oil layer is removed and its K+ concentration is measured by atomic absorption spectrometry using a Perking Elmer model 5000 spectrometer (Perkin Elmer Corp., Norwolk, Conn.). The efflux of K+ (mmol/1 cells/h) in the absence and presence of the inhibitor is calculated from the slope of the curves relating the K+ concentration in the supernatants (mmol/1 cells) vs. time (min.).
# By radioisotopic measurement of ^86 Rb influx. The incubation medium is the same but contains 2 mM KCl and 1 μCi/ml of the radioactive tracer ^86 Rb. After spinning the samples through the phthalate layer, the tubes are rapidly frozen (-80° C.) by immersion in methanol-dry ice, the tips of the tubes containing the packed red cells cut, and counted in a Packard Gamma Counter.
# Swiss 3T3 = experiment: Proliferative response of quiescent 3T3 cells to conditioned media of MAC treated endothelial cells; assay type: cell-based, murine; settings: 10 μM CLT; FIG. 5
# Experimental: (§5) When endothelial cells (EC) in culture (both BAEC and HUVEC) are treated with terminal complement components to form the MAC (membrane attack complex of complement), they release into the culture medium a potent mitogenic activity that stimulates the proliferation of quiescent cells used as indicators of the mitogens. Both, quiescent Swiss 3T3 and vascular smooth muscle cells are stimulated by the mitogens released form EC in response to the MAC (FIG. 5; Halperin et al. unpublished observation). Moreover, immunoprecipitation with specific antibodies has documented that both PDGF and bFGF released from the EC contribute in approximately equal proportion to the mitogenic activity induced by the MAC (data not shown).
# [5] = tested on: vascular smooth muscle cells; experiment: Proliferative response of vascular smooth muscle cells to conditioned media of MAC treated endothelial cells; assay type: cell-based; settings: 10 μM CLT; FIG. 5
# Experimental: as §5
# Swiss 3T3 cells = experiment: DNA synthesis ([3H]thymidine incorporation) in normal fibroblasts; assay type: cell-based, murine
# Experimental: as §1, §2
# Swiss 3T3 cells (murine fibroblast cell line): Quiescent cells were stimulated with purified growth factors (PDGF and bFGF, […]) and synthesis of DNA was assessed by the incorporation of [3H]thymidine measured 24 hours later.
# endothelial cells = experiment: Proliferation of endothelial cells (general statement); assay type: cell-based; settings: for inhibition of proliferation of endothelial cells: specific inhibitors of the Ca++ activated potassium channel
# [6] = tested on: vascular smooth muscle cells; experiment: Proliferation of vascular smooth muscle cells (general statement); assay type: cell-based; settings: for inhibition of proliferation of vascular smooth muscle cells: specific inhibitors of the Ca++ activated potassium channel
# [7] = tested on: testicular and adrenal synthesis of steroid hormones; settings: cited from earlier work
# cell proliferation = experiment: Cell proliferation with inhibitors of other transport systems (general statement); assay type: cell-based; settings: inhibitors of other transport systems activated by mitogens
# [8] = 60 μmol A23187/L cell and 100 μM CaCl2
compound,measurement,setting,value
"Clc1ccccc1C(c1ccccc1)(c1ccccc1)n1ccnc1 [CLT, clotrimazole]",dose response of inhibition of DNA synthesis,[1],Inhibition was dose dependent
same,inhibition of DNA synthesis,[1],complete inhibition
same,inhibition of PDGF stimulated DNA synthesis,[1],completely inhibited
same,inhibition of bFGF stimulated DNA synthesis,[1],completely inhibited
same,"order of inhibitory potency, bFGF-stimulated DNA synthesis",[1],CLT more potent than ECZ
same,"reversibility of the inhibition of DNA synthesis (toxic, non-specific effect)",[1],reversed by removing CLT
same,inhibition of bFGF-stimulated DNA synthesis,[1]; 10 µM,inhibited DNA synthesis
same,inhibition at 1 µM,"[1]; Rattus norvegicus, read-out: inhibition of DNA synthesis",45%
same,flask surface covered by cells,[2],less than 10%
same,flask surface covered by cells,[3],less than 10%
same,inhibition of Ca++ activated 86Rb influx,[4]; [8],markedly inhibited
same,inhibition of Ca++ activated K efflux,[4]; [8],markedly inhibited
same,"order of inhibitory potency, Ca++ activated 86Rb influx",[4],clotrimazole more than miconazole
same,inhibition of proliferative response to mitogens released from EC by MAC,Swiss 3T3,completely inhibited
same,inhibition of proliferative response to mitogens released from EC by MAC,[5],completely inhibited
same,inhibition of PDGF stimulated DNA synthesis,"Swiss 3T3 cells; 10 μM CLT, PDGF, 5 μM, 24 hours",completely inhibited
same,inhibition of bFGF stimulated DNA synthesis,"Swiss 3T3 cells; 10 μM CLT, bFGF, 5 μM, 24 hours",completely inhibited
same,"reversibility of the inhibition of DNA synthesis (toxic, non-specific effect)",Swiss 3T3 cells; removing CLT and re-stimulating with the growth factor,reversed by removing CLT
"Clc1ccc(COC(Cn2ccnc2)c2ccc(Cl)cc2Cl)cc1 (centres unmarked) [ECZ, econazole]","order of inhibitory potency, bFGF-stimulated DNA synthesis","[1]; 10 μM, FIG. 3",ECZ more potent than MCZ
same,inhibition of bFGF-stimulated DNA synthesis,"[1]; antimycotics at 10 μM, FIG. 3",inhibited DNA synthesis
same,"order of inhibitory potency, Ca++ activated 86Rb influx",[4],both of these were more than econazole
"CC(=O)N1CCN(c2ccc(OCC3COC(Cn4ccnc4)(c4ccc(Cl)cc4Cl)O3)cc2)CC1 (centres unmarked) [Ketoconazole, ketoconazole]",usefulness for inhibiting endothelial cell proliferation,"endothelial cells; ketoconazole, no data given",not useful
same,usefulness for inhibiting smooth muscle cell proliferation,"[6]; ketoconazole, no data given",not useful
same,treatment of prostate cancer,[7]; by blocking steroid synthesis,effective in treating some prostate cancers
same,plasma testosterone,[7]; hormonal adjuvant for prostate cancer treatment,reduces plasma testosterone to castration levels
same,"testicular and adrenal synthesis of steroid hormones, including testosterone",[7]; in high doses,appears to inhibit
"Clc1ccc(COC(Cn2ccnc2)c2ccc(Cl)cc2Cl)c(Cl)c1 (centres unmarked) [MCZ, miconazole]","order of inhibitory potency, bFGF-stimulated DNA synthesis","[1]; 10 μM, FIG. 3",ECZ more potent than MCZ
same,inhibition of bFGF-stimulated DNA synthesis,"[1]; antimycotics at 10 μM, FIG. 3",inhibited DNA synthesis
same,"order of inhibitory potency, Ca++ activated 86Rb influx",[4],both of these were more than econazole
N=C(N)NC(=O)c1nc(Cl)c(N)nc1N [amiloride],inhibition of cell proliferation,cell proliferation,do not inhibit cell proliferation
OC(Cn1cncn1)(Cn1cncn1)c1ccc(F)cc1F [fluconazole],inhibition of Ca++ activated 86Rb influx by other antimycotics and related compounds,[4],no inhibition
Cc1ncc([N+](=O)[O-])n1CCO [metronidazole],inhibition of Ca++ activated 86Rb influx by other antimycotics and related compounds,[4],only marginal
Cc1ncc([N+](=O)[O-])n1CC(O)CCl (centres unmarked) [ornidazole],inhibition of Ca++ activated 86Rb influx by other antimycotics and related compounds,[4],no inhibition
C[C@@H]1O[C@@H](O[C@H]2C[C@@H](O)[C@]3(CO)[C@H]4[C@H](O)C[C@]5(C)[C@@H](C6=CC(=O)OC6)CC[C@]5(O)[C@@H]4CC[C@]3(O)C2)[C@H](O)[C@H](O)[C@H]1O [ouabain],inhibition of cell proliferation,cell proliferation,do not inhibit cell proliferation
CCS(=O)(=O)CCn1c([N+](=O)[O-])cnc1C [tinidazole],inhibition of Ca++ activated 86Rb influx by other antimycotics and related compounds,[4],no inhibition
Charybdotoxin,inhibition of DNA synthesis by other inhibitors of the Ca++ activated K channel,[1]; FIG. 3,failed to inhibit DNA synthesis
same,inhibition of proliferation of endothelial cells,endothelial cells,do not inhibit proliferation
same,inhibition of proliferation of vascular smooth muscle cells,[6],do not inhibit proliferation
kaliotoxin: specific inhibitors of the Ca^++ activated potassium channel,inhibition of DNA synthesis by other inhibitors of the Ca++ activated K channel,[1]; FIG. 3,failed to inhibit DNA synthesis
same,inhibition of proliferation of endothelial cells,endothelial cells,do not inhibit proliferation
same,inhibition of proliferation of vascular smooth muscle cells,[6],do not inhibit proliferation
